Earlier results, collected in US20240182893A1, “INHIBITION OF FGR REDUCES FIBROSIS” (UNIVERSITY OF PITTSBURGH-OF THE COMMONWEALTH SYSTEM OF …, priority 2021, published 2024).

Tested on: fibrosis in the lung
Conditions: in vivo; cited from earlier work

Row | SMILES | progression of fibrosis in the lung
1 | Cc1ccc(=O)n(-c2ccccc2)c1 [pirfenidone] | slow the progression of fibrosis
2 | COC(=O)c1ccc2c(c1)NC(=O)/C2=C(\Nc1ccc(N(C)C(=O)CN2CCN(C)CC2)cc1)c1ccccc1 [nintedanib] | slow the progression of fibrosis
